Measured values as given in the NIST ThermoML archive (doi:10.1021/acs.jced.8b00011).
“And” between values parts separate entries of the source, which are not always exact repeats. Equal entries are not always repeated. Numbers after ± are expanded uncertainties.

Settings: Liquid; for mass density: Vibrating tube method; for electrical conductivity: electrochemical impedance spectroscopy

CCCCC[P+](CC)(CC)CC.O=S(=O)([N-]S(=O)(=O)C(F)(F)F)C(F)(F)F
Settings | electrical conductivity | mass density
343.15 K, 45000 kPa | – | 1298.89 ± 1.5 kg/m3
343.15 K, 50000 kPa | – | 1302.23 ± 1.6 kg/m3
348.15 K, 101.33 kPa | 0.885 S/m and 0.887 S/m | –
348.16 K, 101.33 kPa | 0.877 ± 0.018 S/m | –
353.15 K, 100 kPa | – | 1256.32 ± 1.3 kg/m3 [middle of 5 runs]
353.15 K, 101.33 kPa | 0.999 S/m and 1 S/m | –
353.15 K, 1000 kPa | – | 1256.5 ± 1.3 kg/m3
353.15 K, 5000 kPa | – | 1260.01 ± 1.3 kg/m3
353.15 K, 10000 kPa | – | 1264.27 ± 1.3 kg/m3
353.15 K, 15000 kPa | – | 1268.38 ± 1.3 kg/m3
353.15 K, 20000 kPa | – | 1272.39 ± 1.4 kg/m3
353.15 K, 25000 kPa | – | 1276.24 ± 1.4 kg/m3
353.15 K, 30000 kPa | – | 1280.04 ± 1.4 kg/m3
353.15 K, 35000 kPa | – | 1283.68 ± 1.4 kg/m3
353.15 K, 40000 kPa | – | 1287.28 ± 1.5 kg/m3
353.15 K, 45000 kPa | – | 1290.77 ± 1.5 kg/m3
353.15 K, 50000 kPa | – | 1294.22 ± 1.5 kg/m3
363.15 K, 100 kPa | – | 1248.72 ± 1.7 kg/m3 [middle of 4 runs]

Settings | electrical conductivity [S/m] | viscosity
348.14 K, 10700 kPa, Frequency=0 MHz | 0.8 ± 0.016 | –
348.14 K, 225100 kPa, Frequency=0 MHz | 0.167 ± 0.0033 | –
348.15 K, 100 kPa, Falling or rolling sphere viscometry | – | 13.81 ± 0.32 mPa·s [middle of 7 runs]
348.15 K, 600 kPa, Falling or rolling sphere viscometry | – | 13.91 ± 0.33 mPa·s
348.15 K, 1100 kPa, Frequency=0 MHz | 0.871 ± 0.017 | –
348.15 K, 1700 kPa, Frequency=0 MHz | 0.865 ± 0.017 | –
348.15 K, 3100 kPa, Frequency=0 MHz | 0.855 ± 0.017 | –
348.15 K, 5100 kPa, Frequency=0 MHz | 0.84 ± 0.017 | –
348.15 K, 10500 kPa, Falling or rolling sphere viscometry | – | 15.46 ± 0.37 mPa·s
348.15 K, 15700 kPa, Frequency=0 MHz | 0.766 ± 0.015 | –
348.15 K, 20600 kPa, Falling or rolling sphere viscometry | – | 17.36 ± 0.41 mPa·s
348.15 K, 20800 kPa, Frequency=0 MHz | 0.734 ± 0.015 | –
348.15 K, 25700 kPa, Frequency=0 MHz | 0.704 ± 0.014 | –
348.15 K, 30600 kPa, Falling or rolling sphere viscometry | – | 18.78 ± 0.45 mPa·s
348.15 K, 30800 kPa, Frequency=0 MHz | 0.675 ± 0.013 | –
348.15 K, 40200 kPa, Frequency=0 MHz | 0.625 ± 0.013 | –
348.15 K, 40700 kPa, Falling or rolling sphere viscometry | – | 20.72 ± 0.49 mPa·s
348.15 K, 50700 kPa, Falling or rolling sphere viscometry | – | 22.73 ± 1.1 mPa·s
348.15 K, 51400 kPa, Falling or rolling sphere viscometry | – | 22.92 ± 1.1 mPa·s
348.15 K, 60700 kPa, Falling or rolling sphere viscometry | – | 25.33 ± 0.6 mPa·s
348.15 K, 70400 kPa, Falling or rolling sphere viscometry | – | 27.64 ± 0.65 mPa·s
348.15 K, 76000 kPa, Frequency=0 MHz | 0.473 ± 0.0095 | –
348.15 K, 80600 kPa, Falling or rolling sphere viscometry | – | 29.75 ± 0.7 mPa·s
348.15 K, 89800 kPa, Falling or rolling sphere viscometry | – | 32.25 ± 0.76 mPa·s
348.15 K, 99100 kPa, Falling or rolling sphere viscometry | – | 34.86 ± 1.5 mPa·s
348.15 K, 100500 kPa, Falling or rolling sphere viscometry | – | 35.04 ± 1.5 mPa·s
348.15 K, 125700 kPa, Falling or rolling sphere viscometry | – | 42.64 ± 2.2 mPa·s
348.15 K, 126600 kPa, Falling or rolling sphere viscometry | – | 43.88 ± 2.2 mPa·s
348.15 K, 126600 kPa, Frequency=0 MHz | 0.326 ± 0.0065 | –
348.15 K, 150600 kPa, Falling or rolling sphere viscometry | – | 52.08 ± 1.2 mPa·s
348.15 K, 150800 kPa, Falling or rolling sphere viscometry | – | 52.23 ± 1.2 mPa·s
348.15 K, 152400 kPa, Frequency=0 MHz | 0.272 ± 0.0054 | –
348.15 K, 175600 kPa, Falling or rolling sphere viscometry | – | 63.12 ± 1.5 mPa·s
348.15 K, 199600 kPa, Falling or rolling sphere viscometry | – | 75.5 ± 1.9 mPa·s
348.15 K, 200900 kPa, Frequency=0 MHz | 0.196 ± 0.0039 | –
348.15 K, 237000 kPa, Falling or rolling sphere viscometry | – | 99.1 ± 3.1 mPa·s
348.15 K, 242900 kPa, Falling or rolling sphere viscometry | – | 104.9 ± 3.4 mPa·s
348.15 K, 250900 kPa, Frequency=0 MHz | 0.141 ± 0.0028 | –
348.16 K, 100 kPa, Frequency=0 MHz | 0.877 ± 0.018 | –
348.16 K, 50000 kPa, Frequency=0 MHz | 0.577 ± 0.012 | –
348.16 K, 103000 kPa, Frequency=0 MHz | 0.384 ± 0.0077 | –
348.16 K, 176100 kPa, Frequency=0 MHz | 0.231 ± 0.0046 | –
353.15 K, 100 kPa, Concentric cylinders viscometry | – | 12.27 ± 0.28 mPa·s
353.15 K, 100 kPa, Falling or rolling sphere viscometry | – | 12 ± 0.29 mPa·s and 11.96 ± 0.29 mPa·s
363.15 K, 100 kPa, Concentric cylinders viscometry | – | 9.672 ± 0.22 mPa·s
363.15 K, 100 kPa, Falling or rolling sphere viscometry | – | 9.358 ± 0.22 mPa·s and 9.337 ± 0.22 mPa·s and 9.414 ± 0.22 mPa·s
363.15 K, 9700 kPa, Falling or rolling sphere viscometry | – | 10.37 ± 0.25 mPa·s
363.15 K, 20100 kPa, Falling or rolling sphere viscometry | – | 11.57 ± 0.28 mPa·s
363.15 K, 20500 kPa, Falling or rolling sphere viscometry | – | 11.52 ± 0.27 mPa·s
363.15 K, 30200 kPa, Falling or rolling sphere viscometry | – | 12.72 ± 0.3 mPa·s
363.15 K, 39200 kPa, Falling or rolling sphere viscometry | – | 13.83 ± 0.33 mPa·s
363.15 K, 49400 kPa, Falling or rolling sphere viscometry | – | 15.21 ± 0.36 mPa·s
363.15 K, 59100 kPa, Falling or rolling sphere viscometry | – | 16.63 ± 0.39 mPa·s
363.15 K, 80200 kPa, Falling or rolling sphere viscometry | – | 19.84 ± 0.47 mPa·s
363.15 K, 102200 kPa, Falling or rolling sphere viscometry | – | 23.51 ± 0.56 mPa·s
363.15 K, 102500 kPa, Falling or rolling sphere viscometry | – | 23.47 ± 0.56 mPa·s
363.15 K, 124000 kPa, Falling or rolling sphere viscometry | – | 27.54 ± 0.65 mPa·s
363.15 K, 125400 kPa, Falling or rolling sphere viscometry | – | 27.86 ± 0.66 mPa·s
363.15 K, 147300 kPa, Falling or rolling sphere viscometry | – | 32.93 ± 0.78 mPa·s
363.15 K, 149300 kPa, Falling or rolling sphere viscometry | – | 33.43 ± 0.79 mPa·s
363.15 K, 172900 kPa, Falling or rolling sphere viscometry | – | 39.05 ± 0.92 mPa·s
363.15 K, 200700 kPa, Falling or rolling sphere viscometry | – | 47.56 ± 1.1 mPa·s
363.15 K, 212300 kPa, Falling or rolling sphere viscometry | – | 51.41 ± 1.2 mPa·s
